Laboratory results from ChEMBL document CHEMBL3875166, “Synthesis and biological evaluation of new 6-hydroxypyridazinone benzisoxazoles: Potential multi-receptor-targeting atypical antipsychotics” (Eur J Med Chem, 2016).

Experiments:
[1] = molecular target: D(2) dopamine receptor (Rattus norvegicus, UniProt P61169); assay: Displacement of [3H]spiperone from dopamine D2 receptor in Sprague-Dawley rat striatum incubated for 30 mins by liquid scintillation counting analysis
[2] = molecular target: 5-hydroxytryptamine receptor 2A (Rattus norvegicus, UniProt P14842); assay: Displacement of [3H] ketanserin from 5-HT2A receptor in Sprague-Dawley rat cerebral cortex incubated for 30 mins by liquid scintillation counting analysis
5-hydroxytryptamine receptor 2A, sequence (P14842 whole entry): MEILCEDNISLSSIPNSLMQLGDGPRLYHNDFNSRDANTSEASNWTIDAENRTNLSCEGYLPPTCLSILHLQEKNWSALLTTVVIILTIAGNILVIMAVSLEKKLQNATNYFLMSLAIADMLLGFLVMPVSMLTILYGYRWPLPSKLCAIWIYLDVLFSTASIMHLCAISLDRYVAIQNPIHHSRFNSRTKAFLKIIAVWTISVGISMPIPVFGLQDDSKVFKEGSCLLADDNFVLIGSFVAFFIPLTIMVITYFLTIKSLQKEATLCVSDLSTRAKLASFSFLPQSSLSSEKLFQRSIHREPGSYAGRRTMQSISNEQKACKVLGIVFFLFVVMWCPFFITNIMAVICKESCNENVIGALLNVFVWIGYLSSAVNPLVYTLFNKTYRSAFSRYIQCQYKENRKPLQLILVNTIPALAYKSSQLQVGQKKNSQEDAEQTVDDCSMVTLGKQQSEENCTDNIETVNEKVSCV

[3] = molecular target: T1, 5-hydroxytryptamine receptor 1A (Rattus norvegicus, UniProt P19327); assay: Displacement of [3H]8-OH-DPAT from 5-HT1A receptor in Sprague-Dawley rat cerebral cortex incubated for 30 mins by liquid scintillation counting analysis
T1 sequence (P19327 whole entry): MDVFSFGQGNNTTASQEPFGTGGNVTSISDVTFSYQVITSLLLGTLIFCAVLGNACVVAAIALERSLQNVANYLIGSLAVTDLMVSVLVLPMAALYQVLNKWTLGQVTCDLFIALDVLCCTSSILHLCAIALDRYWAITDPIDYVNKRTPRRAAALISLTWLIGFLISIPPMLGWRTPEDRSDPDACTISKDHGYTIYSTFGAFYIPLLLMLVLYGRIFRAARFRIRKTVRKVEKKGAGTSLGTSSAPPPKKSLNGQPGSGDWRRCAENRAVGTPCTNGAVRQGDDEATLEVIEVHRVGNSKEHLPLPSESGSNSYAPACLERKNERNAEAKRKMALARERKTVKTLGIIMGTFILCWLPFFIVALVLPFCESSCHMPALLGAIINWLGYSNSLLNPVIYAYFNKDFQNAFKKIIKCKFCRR

D(2) dopamine receptor, sequence (P61169 whole entry): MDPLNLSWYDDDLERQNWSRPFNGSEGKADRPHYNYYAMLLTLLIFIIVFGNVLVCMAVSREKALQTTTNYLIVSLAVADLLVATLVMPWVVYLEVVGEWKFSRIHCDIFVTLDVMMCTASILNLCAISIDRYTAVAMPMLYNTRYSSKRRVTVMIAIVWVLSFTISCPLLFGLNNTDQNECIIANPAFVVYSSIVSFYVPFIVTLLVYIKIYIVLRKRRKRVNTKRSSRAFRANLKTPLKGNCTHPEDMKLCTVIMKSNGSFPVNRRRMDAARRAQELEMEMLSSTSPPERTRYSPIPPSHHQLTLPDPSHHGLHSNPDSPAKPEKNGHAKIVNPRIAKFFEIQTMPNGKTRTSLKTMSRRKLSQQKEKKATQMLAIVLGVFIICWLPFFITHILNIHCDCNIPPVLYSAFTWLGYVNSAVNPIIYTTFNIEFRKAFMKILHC

Ki [1]	Ki [2]	Ki [3]	Compound
38.3 nM	91.3 nM	121 nM	Cc1c(OCCCN2CCC(c3noc4cc(F)ccc34)CC2)nn(-c2ccc(Cl)c(Cl)c2)c(=O)c1C
28.1 nM	12.3 nM	89 nM	O=c1ccc(OCCCN2CCC(c3noc4cc(F)ccc34)CC2)nn1-c1ccc(Cl)cc1
> 10000 nM	143 nM	157 nM	O=c1ccc(OCCCN2CCN(c3ccccn3)CC2)nn1-c1ccc(Cl)c(Cl)c1
> 10000 nM	81.2 nM	5530 nM	Cc1cccc(N2CCN(CCCOc3ccc(=O)n(-c4ccc(Cl)c(Cl)c4)n3)CC2)c1C
953 nM	64.5 nM	55.4 nM	O=c1ccc(OCCCN2CCN(c3ccc(F)cc3)CC2)nn1-c1ccc(Cl)c(Cl)c1
40.3 nM	25.3 nM	326 nM	O=c1ccc(OCCCCCN2CCC(c3noc4cc(F)ccc34)CC2)nn1-c1ccc(Cl)c(Cl)c1
45.3 nM	12.3 nM	89 nM	O=c1ccc(OCCCN2CCC(c3noc4cc(F)ccc34)CC2)nn1-c1ccc(F)c(Cl)c1
33.1 nM	55.4 nM	34.2 nM	Cc1ccc(-n2nc(OCCCN3CCC(c4noc5cc(F)ccc45)CC3)ccc2=O)cc1
524 nM	242 nM	56.2 nM	COc1ccccc1N1CCN(CCCOc2ccc(=O)n(-c3ccc(Cl)c(Cl)c3)n2)CC1
43.7 nM	83.9 nM	333 nM	O=c1c2ccccc2c(OCCCN2CCC(c3noc4cc(F)ccc34)CC2)nn1-c1ccc(Cl)c(Cl)c1
914 nM	1140 nM	167 nM	O=c1ccc(OCCCN2CCN(c3ncccn3)CC2)nn1-c1ccc(Cl)c(Cl)c1
38.5 nM	3.2 nM	43.5 nM	O=c1ccc(OCCCN2CCC(c3noc4cc(F)ccc34)CC2)nn1-c1ccc(F)c(F)c1
41.8 nM	89.6 nM	224 nM	O=c1c2c(c(OCCCN3CCC(c4noc5cc(F)ccc45)CC3)nn1-c1ccc(Cl)c(Cl)c1)CCCC2
38.1 nM	9.3 nM	129 nM	O=c1ccc(OCCCN2CCC(c3noc4cc(F)ccc34)CC2)nn1-c1cc(Cl)cc(Cl)c1
45.5 nM	131 nM	61.3 nM	O=c1ccc(OCCCN2CCC(c3noc4cc(F)ccc34)CC2)nn1-c1ccccc1
26.7 nM	34.7 nM	117 nM	O=c1ccc(OCCCCN2CCC(c3noc4cc(F)ccc34)CC2)nn1-c1ccc(Cl)c(Cl)c1
16.2 nM	21.3 nM	15.9 nM	O=c1ccc(OCCCN2CCC(c3noc4cc(F)ccc34)CC2)nn1-c1ccc2ccccc2c1
1200 nM	69.5 nM	56.5 nM	O=c1ccc(OCCCN2CCN(c3ccccc3F)CC2)nn1-c1ccc(Cl)c(Cl)c1
41.1 nM	6 nM	183 nM	O=c1ccc(OCCCN2CCC(c3noc4cc(F)ccc34)CC2)nn1-c1cccc(Cl)c1

Ki [1]	Ki [2]	Ki [3]	Compound
648 nM	81.2 nM	984 nM	O=c1ccc(OCCCN2CCN(c3csc4ccccc34)CC2)nn1-c1ccc(Cl)c(Cl)c1
> 10000 nM	595 nM	213 nM	O=c1ccc(OCCCN2CCN(Cc3ccccc3)CC2)nn1-c1ccc(Cl)c(Cl)c1
845 nM	543 nM	57.3 nM	COc1ccc(N2CCN(CCCOc3ccc(=O)n(-c4ccc(Cl)c(Cl)c4)n3)CC2)cc1
38.5 nM	10.3 nM	78 nM	O=c1ccc(OCCCN2CCC(c3noc4cc(F)ccc34)CC2)nn1-c1ccccc1Cl
174 nM	0.5 nM	88.4 nM	O=c1ccc(OCCCN2CCC(c3noc4cc(F)ccc34)CC2)nn1-c1ccc(F)cc1F
379 nM	605 nM	64.8 nM	NC(=O)c1ccc2occ(N3CCN(CCCOc4ccc(=O)n(-c5ccc(Cl)c(Cl)c5)n4)CC3)c2c1
10.8 nM	25.9 nM	52.8 nM	O=c1ccc(OCCCN2CCC(c3noc4cc(F)ccc34)CC2)nn1-c1ccc(F)cc1
808 nM	120 nM	1110 nM	O=c1ccc(OCCCN2CCN(c3ccccc3Cl)CC2)nn1-c1ccc(Cl)c(Cl)c1
7.8 nM	21.7 nM	25 nM	O=c1ccc(OCCCN2CCC(c3noc4cc(F)ccc34)CC2)nn1-c1ccc(Cl)c(Cl)c1
35.4 nM	2.3 nM	38.1 nM	O=c1ccc(OCCCN2CCC(c3noc4cc(F)ccc34)CC2)nn1-c1cc(F)cc(F)c1
179 nM	13.8 nM	–	O=C(c1ccc(F)cc1)C1CCN(CCCOc2ccc(=O)n(-c3ccc(Cl)c(Cl)c3)n2)CC1
595 nM	75.1 nM	898 nM	O=c1ccc(OCCCN2CCN(c3nsc4ccccc34)CC2)nn1-c1ccc(Cl)c(Cl)c1
499 nM	74.5 nM	1250 nM	O=c1ccc(OCCCN2CCC(c3c[nH]c4ccccc34)CC2)nn1-c1ccc(Cl)c(Cl)c1
> 10000 nM	107 nM	> 10000 nM	O=c1ccc(OCCCN2CCC(c3nc4ccccc4s3)CC2)nn1-c1ccc(Cl)c(Cl)c1
1320 nM	359 nM	48.1 nM	O=c1ccc(OCCCN2CCN(c3ccccc3)CC2)nn1-c1ccc(Cl)c(Cl)c1
916 nM	99.2 nM	103 nM	O=c1ccc(OCCCN2CCN(c3cccc(C(F)(F)F)c3)CC2)nn1-c1ccc(Cl)c(Cl)c1
0.4 nM	0.4 nM	191 nM	O=c1ccc(OCCCN2CCC(c3noc4cc(F)ccc34)CC2)nn1-c1ccc(Cl)cc1Cl
777 nM	627 nM	624 nM	O=c1ccc(OCCCN2CCN(c3cccc(Cl)c3Cl)CC2)nn1-c1ccc(Cl)c(Cl)c1
